The record followed here is ChEMBL document CHEMBL5346955, “Discovery of HPG1860, a Structurally Novel Nonbile Acid FXR Agonist Currently in Clinical Development for the Treatment of Nonalcoholic Steatohepatitis” (J Med Chem, 2023).

The nature of data set [1]: Metabolic stability in cynomolgus monkey liver microsomes assessed as half life at 1 uM measured upto 120 mins by UPLC/MS/MS analysis. Format: ADME, Macaca fascicularis, Microsome.
Data set [2] in a line: Metabolic stability in dog liver microsomes assessed as half life at 1 uM measured upto 120 mins by UPLC/MS/MS analysis. Type of data set: ADME, Canis lupus familiaris, Microsome.
Data set [3] addresses T1, Bile acid receptor (Homo sapiens, UniProt Q96RI1).
T1 sequence (Q96RI1 whole entry): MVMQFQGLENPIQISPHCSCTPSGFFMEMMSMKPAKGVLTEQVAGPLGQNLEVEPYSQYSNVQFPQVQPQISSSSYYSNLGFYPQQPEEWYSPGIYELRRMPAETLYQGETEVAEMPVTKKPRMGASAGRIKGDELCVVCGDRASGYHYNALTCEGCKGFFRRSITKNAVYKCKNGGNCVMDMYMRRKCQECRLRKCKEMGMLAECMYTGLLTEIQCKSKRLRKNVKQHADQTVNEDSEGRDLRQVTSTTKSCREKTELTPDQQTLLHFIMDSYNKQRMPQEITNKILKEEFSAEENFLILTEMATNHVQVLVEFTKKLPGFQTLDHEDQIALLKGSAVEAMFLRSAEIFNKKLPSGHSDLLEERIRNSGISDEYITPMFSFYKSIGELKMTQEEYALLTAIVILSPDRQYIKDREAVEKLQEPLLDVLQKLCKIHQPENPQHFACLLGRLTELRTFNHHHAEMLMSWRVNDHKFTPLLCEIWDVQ
In words: Agonist activity at human GAL4-FXR-LBD expressed in HEK293T cells assessed as transcriptional activity measured after 16 to 20 hrs by luciferase reporter gene assay. Type of data set: cell-based.

A short description of data set [4]: Metabolic stability in human liver microsomes assessed as half life at 1 uM measured upto 120 mins by UPLC/MS/MS analysis. Type of data set: ADME, Microsome.
The nature of data set [5]: Metabolic stability in rat liver microsomes assessed as half life at 1 uM measured upto 120 mins by UPLC/MS/MS analysis. Format: ADME, Microsome.
The target in data set [6] is T1, Bile acid receptor. In words: Agonist activity at GST-tagged human FXR-LBD in presence of luorescein-SRC2-2 coactivator peptide by TR-FRET assay.
A short description of data set [7]: Solubility of the compound in PBS buffer at pH 7.4. Type of data set: physicochemical.
In data set [8] the test system is Mus musculus. In words: Anti-nonalcoholic steatohepatitis activity against ccl4-induced C57BL/6J mouse model assessed as clearance of liver steatosis at 30 mg/kg, po qd treated for 28 days. Format: functional, organism-based. The following applies: time 28.0 day.
The subject of data set [9] is Mus musculus. Put plainly: Anti-nonalcoholic steatohepatitis activity against ccl4-induced C57BL/6J mouse model assessed as decrease in AST level in liver at 30 mg/kg, po qd treated for 28 days. Particulars: time 28.0 day. Type of data set: functional, organism-based.
Data set [10] deals with Mus musculus. In words: Anti-nonalcoholic steatohepatitis activity against ccl4-induced C57BL/6J mouse model assessed as improvement in liver inflammation at 30 mg/kg, po qd treated for 28 days. Type of data set: functional, organism-based. Particulars: time 28.0 day.
Data set [11] in a line: Toxicity in C57BL/6J mouse assessed as change in body weight at 30 mg/kg, po qd. Format: organism-based. Particulars: in vivo.
The test system of data set [12] is Mus musculus. In words: Anti-nonalcoholic steatohepatitis activity against ccl4-induced C57BL/6J mouse model assessed as improvement in fibrosis at 30 mg/kg, po qd treated for 28 days. Format: functional, organism-based. Particulars: time 28.0 day.
For data set [13], the system named is Mus musculus. Put plainly: Anti-nonalcoholic steatohepatitis activity against ccl4-induced C57BL/6J mouse model assessed as reduction total cholesterol in serum at 30 mg/kg, po qd treated for 28 days. Type of data set: functional, organism-based. The following applies: time 28.0 day.
The test system of data set [14] is Mus musculus. Put plainly: Anti-nonalcoholic steatohepatitis activity against ccl4-induced C57BL/6J mouse model assessed as decrease in ALT level in liver at 30 mg/kg, po qd treated for 28 days. Type of data set: functional, organism-based. The following applies: time 28.0 day.

In brackets after ≈: the same amount, converted by molar mass. Activity calls are given as the source filed them. The calls are words filed in the database; no cut-off is given here.

For `COc1cc(C(=O)O)cc2sc(N3CCN(Cc4c(-c5c(Cl)cccc5Cl)noc4C4CC4)C[C@@H]3C)nc12`, the half-life at 1 µM in [1] turned out to be 1.14 h; in data set [2], 0.832 h; in data set [4], 5.11 h; in [5], 1.83 h. For the same compound, the concentration giving a half-maximal response (EC50) in data set [3] was determined as 124 nM; in [6], 16 nM.
On to `COc1cc(C(=O)O)cc2sc(C3CCN(Cc4c(-c5c(Cl)cccc5Cl)noc4C(C)C)C3)nc12` (configuration not stated), for which the concentration for a half-maximal effect (EC50) in data set [3] is more than 5000 nM; in data set [6], 266 nM.
Take `C[C@@H]1CN(Cc2c(-c3c(Cl)cccc3Cl)noc2C2CC2)CCN1c1nc2c(F)cc(C(=O)O)cc2s1`: the half-life at 1 µM worked out at 1.94 h in data set [1], 6.67 h in data set [2], 1.47 h in data set [4] and 1.54 h in data set [5]. The results for the EC50 in [3] and in [6] were 39 nM and 6 nM, respectively. In addition, the concentration in solution in [7] (solubility) was 129 µM (≈ 72.5 µg/mL).
Turning to `COc1cc(C(=O)O)cc2sc(N3CCN(Cc4c(-c5c(Cl)cccc5Cl)noc4C(C)C)CC3(C)C)nc12`, the half-maximal effective concentration (EC50) in data set [3] was 127 nM; in [6], 37 nM.
As for `CCC1CN(Cc2c(-c3c(Cl)cccc3Cl)noc2C(C)C)CCN1c1nc2c(OC)cc(C(=O)O)cc2s1` (configuration not stated), the EC50 worked out at 85 nM in [3] and 21 nM in [6].
For `COc1cc(C(=O)O)cc2sc(N3CCC(Cc4c(-c5c(Cl)cccc5Cl)noc4C(C)C)CC3)nc12`, in that order: 194 nM and 28 nM.
Regarding `CC[C@H]1[C@@H](O)C2[C@@H]3CC[C@H]([C@H](C)CCC(=O)O)[C@@]3(C)CC[C@@H]2[C@@]2(C)CC[C@@H](O)C[C@@H]12` (some centres not stated), the outcome in data set [8], in data set [12] and in [13] was Active. For the same compound, the outcome in [9], in [10] and in data set [14] was inactive. The Activity result in data set [11] is “Non-Toxic”.
Regarding `COc1cc(C(=O)O)cc2sc(N3CCN(Cc4c(-c5c(Cl)cccc5Cl)noc4C(C)C)CC3)nc12`, the EC50 amounted to 147 nM in [3] and 31 nM in [6].
Consider `COc1cc(C(=O)O)cc2sc(C3CCN(Cc4c(-c5c(Cl)cccc5Cl)noc4C(C)C)CC3)nc12`, for which the EC50 in data set [3] is more than 5000 nM; in data set [6], 200 nM.
For `CC(C)c1onc(-c2c(Cl)cccc2Cl)c1CN1CCN(c2cc3cc(C(=O)O)ccc3n2C)CC1` the same measures were more than 5000 nM and 67 nM.
For `CC(C)c1onc(-c2c(Cl)cccc2Cl)c1CN1CCN(c2cc3cc(C(=O)O)ccc3s2)CC1`, the EC50 in data set [3] came to 1190 nM.
`CC(C)c1onc(-c2c(Cl)cccc2Cl)c1CN1CCN(c2nc3ccc(C(=O)O)cc3s2)CC1`: the EC50 in data set [3] is 256 nM.
On the same count and under the same terms, with `COc1cc(C(=O)O)cc2sc(N3CCN(Cc4c(-c5c(Cl)cccc5Cl)noc4C(C)C)CC34CC4)nc12` the figure was 1240 nM; with `CC(C)c1onc(-c2c(Cl)cccc2Cl)c1CN1CCN(c2nc3cccc(C(=O)O)c3s2)CC1`, more than 5000 nM.
For `COc1cc(C(=O)O)cc2sc(N3CCN(Cc4c(-c5c(Cl)cccc5Cl)noc4C4CC4)CC3C)nc12` (configuration not stated), the concentration for a half-maximal effect (EC50) in data set [3] amounted to 41 nM; in data set [6], 8 nM.
On to `COc1cc(C(=O)O)cc2sc(N3CCC(Cc4c(-c5c(Cl)cccc5Cl)noc4C(C)C)C3)nc12` (configuration not stated), for which the EC50 in data set [3] and in data set [6] was more than 5000 nM in each case.
